Test results as given in ChEMBL document CHEMBL1123316, “Synthesis and biological activity of substance P C-terminal hexapeptide analogues: structure-activity studies” (1986).
Where a SMILES comes first, the peptide text is derived from it. [ ]: non-standard residue; d: D form. Orn = NCCC[C@H](N)C(=O)O

Columns and labels:
[1] = species on record: Cavia porcellus; assay: In vitro potency as spasmogen relative to SP against guinea pig ileum
[2] = species on record: Rattus norvegicus; assay: In vitro potency as spasmogen relative to SP against rat colon muscularis mucosae

Compound | Relative potency [1] | Relative potency [2]
H-TFFGLM-NH2 | 0.021 | 0.056
H-QFFGLM-NH2 | 0.3 | 0.076
H-VFFGLM-NH2 | 0.067 | 0.15
CO[C@H](C)[C@H](N)C(=O)N[C@@H](Cc1ccccc1)C(=O)N[C@@H](Cc1ccccc1)C(=O)NCC(=O)N[C@@H](CC(C)C)C(=O)N[C@@H](CCSC)C(N)=O (H-T(Me)FFGLM-NH2) | 0.066 | 0.16
CSCC[C@H](NC(=O)[C@H](CC(C)C)NC(=O)CNC(=O)[C@H](Cc1ccccc1)NC(=O)[C@H](Cc1ccccc1)NC(=O)[C@@H](N)CCCN)C(N)=O (H-[Orn]FFGLM-NH2) | 0.39 | 0.36
